According to US10683273B2, “Compounds as DNA probes, methods and applications thereof” (JAWAHARLAL NEHRU CENTRE FOR ADVANCED SCIENTIFIC RESEARCH, priority 2015, dated 2020):

Tests used:
[1] = test system: MCF-7 cells; assay: Cell viability assay (MTT); assay type: cell-based; details: MCF-7, up to 8 μM, about 72 hours
Experimental: MCF-7 cells (4×10^3 cells/well) are seeded in 96-well plate (flat bottom) and cultured for 12 hours. Following this, cells are treated with […] of probe QCy-DT respectively for about 72 hours and further incubated in a humidified CO2 incubator at about 37° C. 20 μL of MTT (5 mg/mL in PBS) solution is added to each well and incubated for about 4 hours at about 37° C. in the CO2 incubator. DMSO (200 μL) is then added to each well. After about 1 hour, absorbance is taken in ELISA microplate reader at 570 nm wavelength.
Following formula is applied for the calculation of percentage of cell viability (CV): CV=(absorbance of the experimental samples/absorbance of the control sample)×100
The data is normalized with control and plotted with mean and standard error.

[2] = test system: P. falciparum strain 3D7; assay: Live fluorescence imaging of malaria parasites; assay type: cell-based, Plasmodium falciparum; details: 0.5 μM, early trophozoite stage, 30 min
Experimental: P. falciparum strain 3D7 is cultured. Briefly, malaria parasites are cultured in human erythrocytes in T75 flasks with RPMI 1640 (Gibco) supplemented with 10 μg/mL gentamicin (Sigma), 50 μg/mL ampicillin, 0.2% NaHCO3 (Sigma), 0.5% albumax (Invitrogen) and Hypoxanthine (27 mg/L). The culture is maintained under standard conditions (37° C. in 90% nitrogen, 5% CO2, and 5% O2). For synchronization of the parasites, ring-staged parasites are treated with 5% sorbitol at 37° C. for about 5-10 min, followed by washing with pre-warmed incomplete medium twice, and placed back in complete medium. QCy-DT probe (resuspended in Mili-Q water) is added to parasites (25±2 hpi) at a final concentration of 0.5 μM and the parasites are incubated for 30 min at 37° C. Following treatment fluorescence imaging of the parasites is performed using Carl Zeiss AXIO Imager Z1 and the software used for image capturing was AxioVision Rel. 4.8.

[3] = test system: (A-T)20; assay: Fluorescence quantum yield in presence of DNA; assay type: binding; details: in presence of (A-T)20
Experimental: (§1) Cresyl violet perchlorate in ethanol (ϕ=0.54) is used as the standard for the fluorescence quantum yield calculation using the absorption of the test sample. The emission spectral area is obtained in the 550-800 nm regions. Dilute solutions (10^−6 M) are used to minimize reabsorption effects of the dyes. Quantum yields are determined using the following equation, ϕs=ϕr(Fs/Fr)×(Ar/As)×(ns^2/nr^2)
(§2) Where, ϕr and ϕs are the quantum yield of reference and sample respectively, Fr and Fs are the integrated intensities (areas) of standard and sample spectra, nr and ns are the refractive indices of the reference and sample solution, Ar and As are the absorbance intensities of reference and sample respectively.

[4] = test system: d(ATAT)5; assay: Fluorescence quantum yield in presence of DNA; assay type: binding; details: in presence of D(ATAT)5
Experimental: as §1, §2

[5] = test system: Drew-AT; assay: Fluorescence quantum yield in presence of DNA; assay type: binding
Experimental: as §1, §2

[6] = test system: DNA; assay: Stokes shift from absorption and emission spectra, in presence of DNA; assay type: physicochemical; details: present disclosure
Experimental: The UV-vis absorption and emission spectra are recorded on Agilent Technologies Cary series UV-vis-NIR absorbance and Cary eclipse fluorescence spectrophotometers, respectively. Thermal denaturation (UV-melting) studies are carried out on Cary 5000 UV-vis-NIR spectrophotometer equipped with Cary temperature controller in the range of 10° C. to 90° C. with a ramp rate of 1° C./min. The variable temperature/wavelength mode is used. Absorption is monitored at 260 nm with regular 5° C. intervals. Melting temperatures (Tm) of DNA samples are calculated from the first derivatives of the absorption vs. temperature curves (thermal denaturation or melting curves) obtained by monitoring at 260 nm.
The molecular interactions of QCy-DT is studied by evaluating the absorption and emission properties in Tris-buffer (100 mM, pH=7.4) under ambient conditions. […] The NIR-fluorescence of QCy-DT arises due to extended through the Cy7 backbone and ICT process. The weak or non-fluorescent behavior of dye molecules in buffer solution is mainly attributed to the intramolecular twisting processes, which cause quenching of the fluorescence of cyanine dyes, solvation with water molecules also aids the fluorescence quenching by means of deactivation of […]. […]

`C[n+]1c(/C=C/c2ccc(O)c(/C=C/c3sc4ccccc4[n+]3C)c2)sc2ccccc21` [QCy-DT, quinone cyanine-dithiazole] was tested, and the cell viability [1] was greater than 76%, the parasite staining [2] was “specifically stain the parasite nuclei” and the “Quantum Yield (ΦF)” value [3] was roughly 0.32. For the same compound, the “Quantum Yield (ΦF)” value [4] was 0.08, the “Quantum Yield (ΦF)” value [5] was roughly 0.25 and the “Stokes shift in presence of DNA” value [6] was 86 nm.
